Measured values from PubChem BioAssay (NCI).
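Dose response: 5 concentrations. Exposure: 48 h. Format: 96-well plates. Endpoint: linear interpolation; highest concentration if not reached. TGI marks complete inhibition of growth.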

Legend:
Experiment in all cases: inhibition of tumour cell growth, NCI panel, 48 h
786-0 renal = test system: 786-0 renal
A498 renal = test system: A498 renal
A549 NSCLC = test system: A549 NSCLC
ACHN renal = test system: ACHN renal
BT-549 breast = test system: BT-549 breast
CAKI-1 renal = test system: CAKI-1 renal
CCRF-CEM leukemia = test system: CCRF-CEM leukemia
COLO 205 colon = test system: COLO 205 colon
DLD-1 colon = test system: DLD-1 colon
DMS 114 small cell lung = test system: DMS 114 small cell lung
DMS 273 small cell lung = test system: DMS 273 small cell lung
DU-145 prostate = test system: DU-145 prostate
EKVX NSCLC = test system: EKVX NSCLC
HCC-2998 colon = test system: HCC-2998 colon
HCT-116 colon = test system: HCT-116 colon
HCT-15 colon = test system: HCT-15 colon
HL-60(TB) leukemia = test system: HL-60(TB) leukemia
HOP-18 NSCLC = test system: HOP-18 NSCLC
HOP-62 NSCLC = test system: HOP-62 NSCLC
HOP-92 NSCLC = test system: HOP-92 NSCLC
HS 578T breast = test system: HS 578T breast
HT29 colon = test system: HT29 colon
IGROV1 ovarian = test system: IGROV1 ovarian
K-562 leukemia = test system: K-562 leukemia
KM12 colon = test system: KM12 colon
KM20L2 colon = test system: KM20L2 colon
LOX IMVI melanoma = test system: LOX IMVI melanoma
LXFL 529 NSCLC = test system: LXFL 529 NSCLC
M14 melanoma = test system: M14 melanoma
M19-MEL melanoma = test system: M19-MEL melanoma
MALME-3M melanoma = test system: MALME-3M melanoma
MCF7 breast = test system: MCF7 breast
MDA-MB-231 breast = test system: MDA-MB-231 breast
MDA-MB-435 = test system: MDA-MB-435
MDA-N = test system: MDA-N
MOLT-4 leukemia = test system: MOLT-4 leukemia
NCI-H226 lung = test system: NCI-H226 lung
NCI-H23 lung = test system: NCI-H23 lung
NCI-H460 lung = test system: NCI-H460 lung
NCI-H522 lung = test system: NCI-H522 lung
NCI/ADR-RES ovarian = test system: NCI/ADR-RES ovarian
OVCAR-3 ovarian = test system: OVCAR-3 ovarian
OVCAR-4 ovarian = test system: OVCAR-4 ovarian
OVCAR-5 ovarian = test system: OVCAR-5 ovarian
OVCAR-8 ovarian = test system: OVCAR-8 ovarian
PC-3 prostate = test system: PC-3 prostate
RPMI-8226 leukemia = test system: RPMI-8226 leukemia
RXF 393 renal = test system: RXF 393 renal
SF-268 CNS = test system: SF-268 CNS
SF-295 CNS = test system: SF-295 CNS
SF-539 CNS = test system: SF-539 CNS
SK-MEL-2 melanoma = test system: SK-MEL-2 melanoma
SK-MEL-28 melanoma = test system: SK-MEL-28 melanoma
SK-MEL-5 melanoma = test system: SK-MEL-5 melanoma
SK-OV-3 ovarian = test system: SK-OV-3 ovarian
SN12C renal = test system: SN12C renal
SNB-19 CNS = test system: SNB-19 CNS
SNB-75 CNS = test system: SNB-75 CNS
SNB-78 CNS = test system: SNB-78 CNS
SR leukemia = test system: SR leukemia
SW-620 colon = test system: SW-620 colon
T-47D breast = test system: T-47D breast
TK-10 renal = test system: TK-10 renal
U251 CNS = test system: U251 CNS
UACC-257 melanoma = test system: UACC-257 melanoma
UACC-62 melanoma = test system: UACC-62 melanoma
UO-31 renal = test system: UO-31 renal
XF 498 CNS = test system: XF 498 CNS

## S=C(S)N1CCOCC1
786-0 renal
  TGI: > 41.4 µM
A498 renal
  TGI: > 54.4 µM
A549 NSCLC
  TGI: > 100 µM
ACHN renal
  TGI: > 100 µM
BT-549 breast
  TGI: > 100 µM
CAKI-1 renal
  TGI: > 34 µM
CCRF-CEM leukemia
  TGI: 4.42 µM
COLO 205 colon
  TGI: 5.98 µM
DLD-1 colon
  TGI: 5.22 µM
DMS 114 small cell lung
  TGI: 0.904 µM
DMS 273 small cell lung
  TGI: 21.1 µM
DU-145 prostate
  TGI: > 100 µM
EKVX NSCLC
  TGI: > 100 µM
HCC-2998 colon
  TGI: > 31.1 µM
HCT-116 colon
  TGI: 24.9 µM
HCT-15 colon
  TGI: > 60.1 µM
HL-60(TB) leukemia
  TGI: 14.3 µM
HOP-18 NSCLC
  TGI: > 100 µM
HOP-62 NSCLC
  TGI: > 100 µM
HOP-92 NSCLC
  TGI: > 100 µM
HS 578T breast
  TGI: > 100 µM
HT29 colon
  TGI: 17.1 µM
IGROV1 ovarian
  TGI: > 100 µM
K-562 leukemia
  TGI: 24.9 µM
KM12 colon
  TGI: > 100 µM
KM20L2 colon
  TGI: > 53.2 µM
LOX IMVI melanoma
  TGI: > 78.3 µM
LXFL 529 NSCLC
  TGI: > 100 µM
M14 melanoma
  TGI: 98.4 µM
M19-MEL melanoma
  TGI: 12.4 µM
MALME-3M melanoma
  TGI: > 64.2 µM
MCF7 breast
  TGI: > 100 µM
MDA-MB-231 breast
  TGI: > 100 µM
MDA-MB-435
  TGI: > 100 µM
MDA-N
  TGI: > 100 µM
MOLT-4 leukemia
  TGI: 9.89 µM
NCI-H226 lung
  TGI: > 100 µM
NCI-H23 lung
  TGI: > 34 µM
NCI-H460 lung
  TGI: > 29.6 µM
NCI-H522 lung
  TGI: 3.98 µM
NCI/ADR-RES ovarian
  TGI: > 100 µM
OVCAR-3 ovarian
  TGI: 15.8 µM
OVCAR-4 ovarian
  TGI: > 34.5 µM
OVCAR-5 ovarian
  TGI: > 100 µM
OVCAR-8 ovarian
  TGI: > 100 µM
PC-3 prostate
  TGI: > 100 µM
RPMI-8226 leukemia
  TGI: 42.6 µM
RXF 393 renal
  TGI: 12.7 µM
SF-268 CNS
  TGI: > 100 µM
SF-295 CNS
  TGI: > 100 µM
SF-539 CNS
  TGI: > 83.6 µM
SK-MEL-2 melanoma
  TGI: > 100 µM
SK-MEL-28 melanoma
  TGI: 82.2 µM
SK-MEL-5 melanoma
  TGI: > 63.9 µM
SK-OV-3 ovarian
  TGI: > 100 µM
SN12C renal
  TGI: > 100 µM
SNB-19 CNS
  TGI: > 100 µM
SNB-75 CNS
  TGI: > 29.8 µM
SNB-78 CNS
  TGI: > 100 µM
SR leukemia
  TGI: 14.8 µM
SW-620 colon
  TGI: 16.5 µM
T-47D breast
  TGI: > 100 µM
TK-10 renal
  TGI: > 100 µM
U251 CNS
  TGI: 25.8 µM
UACC-257 melanoma
  TGI: > 100 µM
UACC-62 melanoma
  TGI: 15 µM
UO-31 renal
  TGI: > 100 µM
XF 498 CNS
  TGI: 16 µM
